Biological target: T1, human CatSper (Homo sapiens, UniProt Q7RTX7+Q86XQ3+Q8NEC5+Q96P56)
T1 construct: isolated motile sperm cells from freshly ejaculated semen samples of healthy human donors; endogenous in cells; host or cells: motile human sperm cells from ejaculates of healthy donors (swim-up)
Test: Inhibition of CatSper activation in human sperm cells, Ca2+-fluorophore plate reader assay
Type: cell-based
Details: for Inhibition of activation of human CatSper by progesterone / Inhibition of activation of human CatSper by intracellular alkalization via NH4Cl: low μM doses, human sperm cells, [Ca2+]i fluorescence; for Inhibition of activation of human CatSper by progesterone: 500 nM progesterone; for Inhibition of activation of human CatSper by intracellular alkalization via NH4Cl: 3 mM NH4Cl; for IC50: motile human sperm cells (swim-up), Ca2+-fluorophore, CatSper activated by 500 nM progesterone, dose inhibition curve, read-out: IC50, inhibition of progesterone-induced signals through CatSper
Text: Isolated live and motile human sperm cells were loaded with a Ca^2+-sensitive fluorophore, washed and aliquoted to a 384-well plate placed in a fluorescence plate reader. Readouts in ΔF/F0 (%) on the y-axis reflect the intracellular concentration of Ca^2+ ([Ca^2+],) in the sperm cells as a function of time (FIG. 1, 2, 4) or dose of zafirlukast (FIG. 3).
After measuring the baseline fluorescence for 80s serially diluted doses of zafirlukast as well as a negative buffer control (FIGS. 1 and 4) were added to the sperm cells. Hereafter the measurement was continued for a few minutes before a second addition of 500 nM progesterone (FIG. 1) or 3 mM NH4Cl (FIG. 4) to activate CatSper. […] CatSper-signals induced by 500 nM progesterone (FIG. 2) in the presence of serially diluted doses of zafirlukast are used for the dose inhibition curve for zafirlukast on progesterone-induced signals through CatSper (FIG. 3).
Isolated live and motile human sperm cells were loaded with a Ca^2+-sensitive fluorophore, washed and aliquoted to a 384-well plate placed in a fluorescence plate reader. Readouts in ΔF/F0 (%) on the y-axis reflect the intracellular concentration of Ca^2+ ([Ca^2+],) in the sperm cells as a function of time (FIG. 5, 6, 8) or dose of aniline derivate (FIG. 7).
After measuring the baseline fluorescence for 80s serially diluted doses of aniline derivative as well as a negative buffer control (FIGS. 5 and 8) were added to the sperm cells. Hereafter the measurement was continued for a few minutes before a second addition of 500 nM progesterone (FIG. 5) or 3 mM NH4Cl (FIG. 8) to activate CatSper. […] CatSper-signals induced by 500 nM progesterone (FIG. 6) in the presence of serially diluted doses of the aniline derivative are used for the dose inhibition curve for aniline derivative on progesterone-induced signals through CatSper (FIG. 7).
(§1) To assess the effect of zafirlukast on CatSper in human sperm cells, we first isolated motile sperm cells from freshly ejaculated semen samples of healthy human donors through the swim-up method. Then we loaded these sperm cells with a Ca^2+-fluorophore, i.e. a molecule that emits light more intensively when [Ca^2+], increases. Hereafter we aliquoted these fluorophore-loaded sperm cells to the wells of micro-well plates and inserted the plate into a fluorescence plate reader, that measures the light emitted from the Ca^2+-fluorophore. After measuring the baseline fluorescence for 80s we added to the wells serially diluted doses of zafirlukast (FIGS. 1 and 4). Hereafter we continued the measurement for a few minutes before a second addition of 500 nM progesterone (FIG. 1) or 3 mM NH4Cl (FIG. 4) to activate CatSper.
as §1, with “the aniline derivative” for “zafirlukast”, “[Ca^2*],” for “[Ca^2+],”, “5” for “1”, “8).” for “4).”, “5)” for “1)”, “8)” for “4)”

Inhibition of activation of human CatSper by progesterone | Inhibition of activation of human CatSper by intracellular alkalization via NH4Cl | IC50 [µM] | SMILES
inhibits the activation of human CatSper | inhibits the activation of human CatSper | ~2.2 | COc1cc(C(=O)NS(=O)(=O)c2ccccc2C)ccc1Cc1cn(C)c2ccc(NC(=O)OC3CCCC3)cc12 [zafirlukast]
inhibits the activation of human CatSper | inhibits the activation of human CatSper | ~0.9 | COc1cc(C(=O)NS(=O)(=O)c2ccccc2C)ccc1Cc1cn(C)c2ccc(N)cc12 [aniline derivative]
